Experimental data as given in patent US7091347B2, “Bicyclic pyridine and pyrimidine p38 kinase inhibitors” (Roche Palo Alto LLC, priority 2002, dated 2006).
Structures can show the parent of a compound that is named as a salt.

Assays:
[1] = target: T1, p38 MAP kinase (UniProt Q16539); test: Inhibition of p-38 (MAP) kinase in vitro assay (transfer of γ-33P from ATP to Myelin Basic Protein); assay type: biochemical; details: phosphorylated recombinant p38 MAP kinase, MBP substrate, γ-33P-ATP, 30° C.
T1 construct: fused on or other part: A His tag is implied by purification on a nickel column
Experimental: The p-38 MAP kinase inhibitory activity of compounds of this invention in vitro was determined by measuring the transfer of the y-phosphate from γ-^33P-ATP by p-38 kinase to Myelin Basic Protein (MBP), using the a minor modification of the method described in Ahn, N. G.; et al. J. of Biol. Chem. Vol. 266(7), 4220–4227, (1991)
The phosphorylated form of the recombinant p38 MAP kinase was expressed with SEK-1 and MEKK in E. Coli (see, Khokhlatchev, A. et al. J. of Biol. Chem. Vol. 272(17), 11057–11062, (1997) and then purified by affinity chromatography using a Nickel column.
The phosphorylated p38 MAP kinase was diluted in kinase buffer (20 mM 3-(N-morpholino)propanesulfonic acid, pH 7.2, 25 mM β-glycerol phosphate, 5 mM ethylene glycol-bis(beta-aminoethyl ether)-N,N,N′,N′-tetraacetic acid, 1 mM sodium vanadate, 1 mM dithiothreitol, 40 mM magnesium chloride). Test compound dissolved in DMSO or only DMSO (control) was added and the samples were incubated for 10 min. at 30° C. The kinase reaction was initiated by the addition of a substrate cocktail containing MBP and γ-^33P-ATP. After incubating for an additional 20 min. at 30° C., the reaction was terminated by adding 0.75% phosphoric acid. The phosphorylated MBP was then separated from the residual γ-^33P-ATP using a phosphocellulose membrane (Millipore, Bedfrod, Mass.) and quantitated using a scintillation counter (Packard, Meriden, Conn.).
The p-38 inhibitory activities (expressed as IC50, the concentration causing 50% inhibition of the p-38 enzyme being analyzed) of the compounds listed in Table 1 in the specification are between 0.01 μM and 10 μM.

Compound	melting point [°C]	IC50 [1] [nM]
Fc1ccccc1Cc1cc2cnc(NC3CCOCC3)nc2s1 (as salt: hydrochloride) [Compound 25, 2-(tetrahydropyran-4-ylamino)-6-[(2-fluorophenyl)methyl]thieno[2,3-d]pyrimidine]	217 to 219	
c1ccc(Cc2cc3cnc(NC4CCCC4)nc3o2)cc1 [Compound 30, 2-(cyclopentylamino)-6-benzyl-furano[2,3-d]pyrimidine]		744
Cn1c(Cc2ccccc2)cc2cnc(NC3CCCC3)nc21 [Compound 33, 2-(cyclopentylamino)-6-benzyl-7-methyl-pyrrolo[2,3-d]pyrimidine]		135
Fc1ccc(Sc2cc3cnc(NC4CCOCC4)nc3s2)c(F)c1 [Compound 41, [6-(2,4-Difluorophenylsulfanyl)thieno[2,3-d]pyrimidin-2-yl]-(tetrahydropyran-4-yl)-amine]		226

Further lines, results first:

melting point [°C]	IC50 [1] [nM]	Compound
102.6 to 103.8	104	O=C(c1ccccc1)c1cc2cnc(N[C@H]3CC[C@H](O)CC3)nc2s1 [Compound 1]
219.5 to 220.5	221	Cl.O=C(c1ccccc1)c1cc2cnc(NC3CCOCC3)nc2s1 [Compound 3]
195.2 to 195.5		O=C(c1cc2cnc(NC3CCOCC3)nc2s1)c1ccccc1F [Compound 9, 2-(tetrahydropyran-4-ylamino)-6-(2-fluorobenzoyl)thieno[2,3-d]pyrimidine]
152.2 to 162.1	128	CS(=O)(=O)N1CCC(Nc2ncc3cc(C(O)c4ccccc4)sc3n2)CC1.Cl (centres unmarked) [Compound 23]
